Assay: Inhibition of recombinant full length human His-tagged PDK1 expressed in Baculovirus expression system in presence of ATP measured by […]

| IC50 [nM] | SMILES |
| --- | --- |
| 245 | O=C(CCCNC(=O)c1cccn(Cc2ccc(F)c(F)c2)c1=O)Nc1ccc2c(c1)/C(=C/c1cnc[nH]1)C(=O)N2 [US10351548, Compound DF8] |
| 5880 | O=C(CCCNC(=O)c1cccn(Cc2ccc(F)c(F)c2)c1=O)Nc1ccc2c(c1)C(=Cc1cccs1)C(=O)N2 [US10351548, Compound DF9] |

More lines, now with the values behind:

| SMILES | IC50 [nM] |
| --- | --- |
| O=C(CCNC(=O)c1cccn(Cc2ccc(F)c(F)c2)c1=O)Nc1ccc2c(c1)/C(=C/c1cnc[nH]1)C(=O)N2 [US10351548, Compound DD21] | 103 |
| Cc1c(Br)cc(C(=O)N[C@@H](C(=O)Nc2ccc3c(c2)/C(=C/c2cnc[nH]2)C(=O)N3)c2ccccc2)c(=O)n1Cc1ccc(F)c(F)c1 | 475 |
| Cc1c(Br)cc(C(=O)NCC(=O)Nc2ccc3c(c2)/C(=C/c2cnc[nH]2)C(=O)N3)c(=O)n1Cc1ccc(F)c(F)c1 | 134 |
| Cc1ccc(C(=O)N[C@@H](C(=O)Nc2ccc3c(c2)/C(=C/c2cnc[nH]2)C(=O)N3)c2ccccc2)c(=O)n1Cc1ccc(F)c(F)c1 | 148 |
| O=C(CCNC(=O)c1cccn(Cc2ccc(F)c(F)c2)c1=O)Nc1ccc2c(c1)/C(=C/c1ncc[nH]1)C(=O)N2 | 455 |
| Cc1ccc(C(=O)NCC(=O)Nc2ccc3c(c2)/C(=C/c2cnc[nH]2)C(=O)N3)c(=O)n1Cc1ccc(F)c(F)c1 | 103 |
| O=C(CCNC(=O)c1cccn(Cc2ccc(F)c(F)c2)c1=O)Nc1ccc2c(c1)C(=Cc1cccs1)C(=O)N2 | 1340 |
